Reference: patent US20060281807A1, “Quassinoid compositions for the treatment of cancer and other proliferative diseases” (Tapestry Pharmaceuticals, Inc., priority 2005, published 2006)
Values after ≈ are worked out from the molar mass of the structure shown. Values joined by “and” are separate entries in the source; they are usually repeats but may differ in a detail not shown here. Equal entries are not always repeated.

Experiments:
SK-N-AS = assay: MTT cytotoxicity assay (% kill), SK-N-AS; assay type: cell-based, human; conditions: 1.0 μg/mL, MTT after five days
Procedure: (§1) The following human tumor cell lines were obtained and cultured in sextuplicate microwells at 37° C. and 5% CO2 in humidified air and in 10% FBS in Eagles MEM: SK—N—FI, SK—N-AS, LS-174T, WiDr, HuTu-80, MCF7, NCI-AR, MES-Sar, and PL-45. Cells from each cell line were separately treated with an amount of one of the compounds of Formula I, II, or III (see Table 1). Cells were exposed to each compound (0.1 μg/mL or 1.0 μg/mL) for one hour or 24 hours, rinsed with drug-free media, and incubated for an additional five days. The number of viable cells after five days was measured using an MTT (3-(4,5-dimethylthiazol-2-yl)-2,5-diphenyltetrazolium bromide) assay (see, e.g., Mosmann, J. Immunol. Methods, 65(1-2), 55-63 (1983)).
(§2) The cytotoxicity of each drug was determined and expressed as the percent of cells killed (“% kill”).

LS-174T = assay: MTT cytotoxicity assay (% kill), LS-174T; assay type: cell-based, human; conditions: 1.0 μg/mL, MTT after five days
Procedure: as §1, §2

[1] = tested on: Colon 38 (murine colon adenocarcinoma); assay: Disk diffusion assay, zone of inhibition, Colon 38; zone differentials, potency and product; assay type: cell-based; parameters: key to C38ΔL1210 / C38ΔCFU: difference of zone of inhibition values, in zone units; conditions: for Sum: C38ΔL1210 plus C38ΔCFU; for C38ΔL1210 / C38ΔCFU: difference between zone of inhibition values; for C38ΔL1210: Colon38 vs L1210 leukemia; for C38ΔCFU: Colon38 vs normal cell CFU-GM; for Product: potency multiplied by zone differentials; for zone of inhibition, Colon 38: 1 mg/mL
Procedure: (§3) A disk diffusion assay was performed to define the differential cell killing ability of 15-O-(3′-hydroxy-3′-isopropyl-4′-methylpentanoyl)bruceolide. Seven cell types were assayed: L1210 (ATCC CCL-219) (murine leukemia), CCRF-CEM (ATCC CCL-119) (human leukemia), Colon 38 (murine colon adenocarcinoma), HCT116 (ATCC CCL-247) (human colorectal carcinoma), H125 (human lung carcinoma). The murine and human granulocyte/macrophage progenitor cell line (CFU-GM), served as controls.
(§4) Colon 38 cells (about 1 gram) were cut into small fragments in 15 mL of Hank's Balanced Salt Solution (HBSS) over a 100-mesh sieve and gently forced through by the scissors with HBSS constantly perfusing the sieve. The resulting material was then drawn into and out of a 5 mL syringe without a needle to further disperse the cell clumps. The cell solution was diluted and plated in 0.3% agarose in DMEM plus 10% heat-inactivated Bovine Calf Serum (BCS). For plating of all of the cell types (except controls), the 60 mm plates were first prepared with a hard agar bottom layer (0.6% agar in RPMI-1640 plus 15% BCS).
(§5) A 15 μl sample of each compound was dropped onto a 6.5 mm disk (Baxter filter disks). The disks were allowed to dry overnight and then placed close to the edge of a petri dish. Depending upon the cell type, the dishes were incubated for 7 to 10 days, and examined by an inverted stereo-microscope (10×) for measurement of the zone of inhibition. The zone of inhibition was measured from the edge of the filter disk to the beginning of normal-sized colony formation. The diameter of the filter disk, 6.5 mm, was arbitrarily taken as a zone of 200 units. Compounds that were selective for killing solid tumors, as compared to leukemia or normal cells (“solid tumor selective”) were defined as those compounds which produced a difference in zones between solid tumor cells and either normal or leukemia cells of at least 250 units. The results of this analysis are set forth in Table 4, which illustrates the relative diameters of the zones of inhibition by various drugs on the growth of the respective cell types at various drug dilutions.
The degree of differential sensitivity of several inventive compounds was compared with respect to the Colon38 cell line, the L1210 cell line, and the control CFU-GM cell lines. The degree of differential sensitivity was estimated by calculating the difference between the zone of inhibition values, as determined in Example 6, for the solid tumor compared to either the leukemia (C38ΔL1210) or normal cell (C38ΔCFU).
The potency of each of several inventive compounds was determined by identifying the dilution required to yield an average zone of inhibition of 500 units for the Colon38 cell type. Then the potency and the zone differentials were multiplied to define a “product” (see Table 5), which can be used to rank the compounds tested for their potential for further development; the greater the product value the greater the probability of useful chemotherapeutic utility.

L1210 (murine leukemia) = assay: Disk diffusion assay, zone of inhibition, L1210; assay type: cell-based; conditions: 1 mg/mL
Procedure: as §3, §4, §5

[2] = tested on: HCT116 (human colorectal carcinoma); assay: Disk diffusion assay, zone of inhibition, HCT116; assay type: cell-based; conditions: 1 mg/mL
Procedure: as §3, §4
(§6) HCT116 and H125 cells were maintained in cell culture, and were removed from culture by a trypsin-collagenase-DNAase cocktail. The plating efficiencies of each cell type was sufficiently high that 30,000 cells in 3 mL produced the desired number of colonies (i.e., over 10,000 per plate) in 60 mm plates. This soft agar top layer (0.3% with the serum and media as above) plus the titrated tumor cells were poured into the plates and allowed to solidify.
as §5

[3] = tested on: H125 (human lung carcinoma); assay: Disk diffusion assay, zone of inhibition, H125; assay type: cell-based; conditions: 1 mg/mL
Procedure: as §3, §4, §6, §5

[4] = tested on: CCRF-CEM (human leukemia); assay: Disk diffusion assay, zone of inhibition, CCRF-CEM; assay type: cell-based; conditions: 1 mg/mL
Procedure: as §3, §4, §5

murine CFU-GM = assay: Disk diffusion assay, zone of inhibition, murine CFU-GM; assay type: cell-based; conditions: 1 mg/mL
Procedure: as §3
For CFU-GM cells, the femoral marrow of BD2F1 mice was flushed with MEM alpha (2 mL per femur). The cells were passed through an 18 gauge needle twice and the monodispersed suspension was counted. A total of 1.5×10^6 cells were plated in 3 mL of 0.3% agar with the addition of 10% L cell conditioned media, which provided colony stimulating factor, in MEM-alpha plus 10% BCS. For human CFU-GM, the cells were obtained from Poietic Technologies, Inc. (Gaithersburg, Md.) and washed twice with PBS before being titered and added to the agar mixture. The same cell number, culture conditions, and conditioning factors used with respect to the murine CFU-GM cells were used with the human cells, except that the cultures were assessed after 10 days of incubation.
as §5

HCT-116 cells [5] = assay: HCT-116 cytotoxicity, viable cell count by trypan blue; assay type: cell-based, human
HCT-116 cells [6] = assay: Clonogenic assay, HCT-116; assay type: cell-based, human; conditions: colonies at 7 days
Procedure: A clonogenic assay was performed using HCT-116 cells. Specifically, HCT-116 cells were seeded at 200 to 20,000 cells in 60 mm dishes. […] At either 2 hours or 24 hours following drug administration, the drug-containing media was removed, and fresh media without drug was added. In addition, one group of cells was subjected to continuous drug exposure for the entire incubation period. The dishes were incubated for 7 days (at 37° C. and 5% CO2), media was removed, and the colonies were stained with methylene blue. Colonies containing 50 cells or more were counted. The results were normalized to an untreated control. Plating efficiency for the untreated cells was about 90%. Repeat experiments also were carried out to define the cell survival range between 1 (100%) and 10^−3 (0.1%) survival. A survival rate of 10^−1 was chosen as the minimal level that would be required in vivo to achieve therapeutic efficacy against HCT-116 cells in tumor-bearing mice. The clonogenic dose response to 15-O-(3′-hydroxy-3′-isopropyl-4′-methylpentanoyl)bruceolide is illustrated in FIG. 4. The clonogenic dose response to 15-(3-isopropyl-4-methyl-2-pentenoyl)-bruceolide is illustrated in FIG. 5.

[7] = no dilution, 15 μl on disk, 6.5 mm = 200 units

COC(=O)C12OCC34C(CC5C(C)=C(O)C(=O)CC5(C)C3C(O)C1O)OC(=O)C(OC(=O)c1cc(C)oc1C)C24 (centres unmarked) [15-O-(2′,5′-dimethyl-3′-furoyl)-bruceolide] was tested, and the “% Kill, SK-N-AS” value (SK-N-AS; 1 h exposure) was 0%, the “% Kill, SK-N-AS” value (SK-N-AS; 24 h exposure) was 34% and the “% Kill, LS-174T” value (LS-174T; 1 h exposure) was 12%. The “% Kill, LS-174T” value (LS-174T; 24 h exposure) was 53%, the Sum [1] was 1050 and the C38ΔL1210 [1] was 500. The C38ΔCFU [1] was 550 and the Product [1] was 4200.
In the case of COC(=O)C12OCC34C(CC5C(C)=C(O)C(=O)CC5(C)C3C(O)C1O)OC(=O)C(OC(=O)C1=CCCC1)C24 (centres unmarked) [15-O-(1′-cyclopentenoyl)-bruceolide], the “% Kill, SK-N-AS” value (SK-N-AS; 1 h exposure) is reported as 0%, the “% Kill, SK-N-AS” value (SK-N-AS; 24 h exposure) is reported as 0% and the “% Kill, LS-174T” value (LS-174T; 1 h exposure) is reported as 0%. The “% Kill, LS-174T” value (LS-174T; 24 h exposure) was 8%, the Sum [1] was 750 and the C38ΔL1210 [1] was 350. The C38ΔCFU [1] was 400 and the Product [1] was 750.
CC1=CC(=O)[C@@H](O)[C@]2(C)[C@H]3[C@@]4(O)OC[C@]35[C@H]([C@@H](C)[C@H]4O)[C@@H](O)C(=O)O[C@@H]5C[C@@H]12 [Glaucarubolone, glaucarubolone] was tested, and the “zone of inhibition, L1210” value (L1210 (murine leukemia); dilution 1/100) was 0 units, the “zone of inhibition, L1210” value (L1210 (murine leukemia); dilution 1/1000) was 0 units and the “zone of inhibition, L1210” value (L1210 (murine leukemia); [7]) was 400 units. For the same molecule, the “zone of inhibition, Colon 38” value ([1]; dilution 1/10) was >1000 units and 600 units, the “zone of inhibition, Colon 38” value ([1]; dilution 1/40) was 400 units and the “zone of inhibition, Colon 38” value ([1]; dilution 1/100) was 400 units. The “zone of inhibition, Colon 38” value ([1]; dilution 1/1000) was 0 units, the “zone of inhibition, Colon 38” value [1, 7] was greater than 1000 units and the Sum [1] was 1150 and 800. For the same molecule, the C38ΔL1210 [1] was 550 and 400, the C38ΔCFU [1] was 600 and 400 and the Product [1] was 4600 and 3600. For the same molecule, the “zone of inhibition, H-116” value ([2]; dilution 1/10) was 600 units, the “zone of inhibition, H-116” value ([2]; dilution 1/100) was 0 units and the “zone of inhibition, H-116” value ([2]; dilution 1/1000) was 0 units. For the same molecule, the “zone of inhibition, H-116” value [2, 7] was greater than 1000 units, the “zone of inhibition, H-125 M” value ([3]; dilution 1/10) was 700 units and the “zone of inhibition, H-125 M” value ([3]; dilution 1/100) was 0 units. The “zone of inhibition, H-125 M” value ([3]; dilution 1/1000) was 0 units, the “zone of inhibition, H-125 M” value [3, 7] was greater than 1000 units and the “zone of inhibition, CEM” value ([4]; dilution 1/10) was 600 units. For the same molecule, the “zone of inhibition, CEM” value ([4]; dilution 1/100) was 0 units, the “zone of inhibition, CEM” value ([4]; dilution 1/1000) was 0 units and the “zone of inhibition, CEM” value [4, 7] was 900 units. The “zone of inhibition, murine CFU-GM” value (murine CFU-GM; dilution 1/10) was 0 units, the “zone of inhibition, murine CFU-GM” value (murine CFU-GM; dilution 1/40) was 0 units and the “zone of inhibition, murine CFU-GM” value (murine CFU-GM; dilution 1/100) was 0 units. For the same molecule, the “zone of inhibition, murine CFU-GM” value (murine CFU-GM; dilution 1/1000) was 0 units, the “zone of inhibition, murine CFU-GM” value (murine CFU-GM; [7]) was 50 units and the IC90/IC50 (HCT-116 cells [5]; HCT-116) was 58. The IC50 (HCT-116 cells [5]; Homo sapiens, 72 h, HCT-116, 3 days with compound, viable cells, by interpolation, read-out: IC50) was 0.04 µg/mL (≈ 0.101 µM), the IC90 (HCT-116 cells [5]; Homo sapiens, 72 h, HCT-116, 3 days with compound, viable cells, by interpolation, read-out: IC90) was 2.3 µg/mL (≈ 5.83 µM) and the “Concentration Required for 10^−1 Survival Fraction” value (HCT-116 cells [6]; HCT-116, 2 Hour Exposure) was greater than 10 μg/mL. For the same molecule, the “Concentration Required for 10^−1 Survival Fraction” value (HCT-116 cells [6]; HCT-116, 24 Hour Exposure) was 1 × 10^0 μg/mL and the “Concentration Required for 10^−1 Survival Fraction” value (HCT-116 cells [6]; HCT-116, Continuous Exposure) was 2 × 10^−2 μg/mL.
For COC(=O)[C@@]12OC[C@]34[C@H]([C@@H](O)[C@@H]1O)[C@@]1(C)CC(=O)C(O)=C(C)[C@@H]1C[C@H]3OC(=O)[C@H](OC(=O)C1=CCCCC1)[C@@H]24 [15-O-(1′-cyclohexenoyl)-bruceolide], the “% Kill, SK-N-AS” value (SK-N-AS; 1 h exposure) was 0%, the “% Kill, SK-N-AS” value (SK-N-AS; 24 h exposure) was 5% and the “% Kill, LS-174T” value (LS-174T; 1 h exposure) was 12%. For the same molecule, the “% Kill, LS-174T” value (LS-174T; 24 h exposure) was 35%, the Sum [1] was 550 and the C38ΔL1210 [1] was 200. It also gave a C38ΔCFU [1] of 350 and a Product [1] of 550.
